Reference: US20220110985A1, “NUTRITIONAL COMPOSITION COMPRISING 2'FUCOSYLLACTOSE AND 3'GALACTOSYLLACTOSE” (N.V. Nutricia, priority 2019, published 2022)

Legend:
Caco-2 cell monolayer = test: DON-induced impairment of Caco-2 cell monolayer integrity (TEER, lucifer yellow flux); type: cell-based, human; conditions: for effect on DON-induced loss of epithelial barrier integrity (TEER, LY flux), in words: 24 h pretreatment (GLs 0.75 wt. %; 2′-FL 1 mg/ml), then DON 4.2 μM 24 h
Procedure: Beta1,3′-galactosyl-lactose (beta3′-GL), beta1,4′-galactosyllactose (beta4′-GL) and beta1,6′-galactosyl-lactose (beta6′-GL) were obtained from Carbosynth (Berkshire, UK). Alpha1,3′-galactosyl-lactose (alpha3′-GL) was obtained from Elicityl (Crolles, France). Purified deoxydivalenol (DON) (D0156; Sigma Aldrich, St Luis, Mo., USA) was dissolved in pure ethanol and stored at −20° C. Human epithelial colorectal adenocarcinoma (Caco-2) cells were obtained from American […] (Code HTB-37) (Manasse, Va., USA, passage 90-102).
Caco-2 cells were used according to established methods. In brief: cells were cultured in Dulbecco's modified Eagle medium (DMEM) and seeded at a density of 0.3×10^5 cells into 0.3 cm^2 high pore density (0.4 μm) inserts with a polyethylene terephthalate membrane (BD Biosciences, Franklin Lakes, N.J., USA) placed in a 24-well plate. The Caco-2 cells were maintained in a humidified atmosphere of 95 air and 5% CO2 at 37° C.
Caco-2 cell monolayers were thus grown in a transwell system, which is a model for intestinal barrier function. The monolayers were pretreated for 24 h with different GLs, including beta3′-GL, alpha3′-GL, beta4′-GL and beta6′-GL in a concentration of 0.75 wt. % of the GL, before being exposed to the fungal toxin deoxynivalenol (DON), which is a trigger and model compound to impair intestinal barrier. DON was diluted to a final concentration of 4.2 μM in complete cell medium and added to the apical side as well as to the basolateral side of the transwell inserts. […] Incubation with DON was 24 h.
Measurements of the transepithelial electrical resistance (TEER) and lucifer yellow (LY) permeability were conducted to investigate barrier integrity. For TEER measurements a Millicel-ERS voltohmmeter connected to a pair of chopsticks electrodes was used to measure the TEER values. Results are expressed as a percentage of the initial value. For paracellular tracer flux assay the membrane impermeable lucifer yellow (LY) (Sigma, St Luis, Mo., USA) was added in a concentration of 16 μg/ml to the apical compartment in the transwell plate for 4 h, and the paracellular flux was determined by measuring the fluorescence intensity in the basolateral compartment with a spectrophotofluorimeter (FLUOstar Optima, BMG Labtech, Offenburg, Germany) set at excitation and emission wavelengths of 410 and 520 nm, respectively. Release of interleukin-8 (IL-8 or CXCL8), which is a typical marker for inflammation, was quantified in the medium of the apical side and the basolateral side of the Caco-2 transwell inserts in response to the treatments. CXCL8 concentrations were measured by using the human IL-8 ELISA assay (BD Biosciences, Pharmingem, San Diego, Calif., USA) according to manufacturer's instructions. For more details on materials and methods see Akbari et al, 2016, Eur J Nutr. 56(5):1919-1930.

[1] = tested on: Salmonella enteriditis S29; test: Fecal slurry fermentation spiked with pathogens: Salmonella; type: cell-based
Procedure: (§1) Anaerobic fermentation of fecal slurry samples was tested in a BioLector Pro microfluidics mini multifermentor. Faecal slurry samples were collected from breast fed infants and from formula fed infants. These faecal slurry samples were processed by adding 0.6 grams feces in 40 ml Baby Reichardt V.6 medium+mucus+Ammonium sulfate+lactate and acetate. The resulting solutions were inserted to the BioLector Pro microfluidics mini multifermentor. The test legs were supplemented with 3-GL, 2′-FL, 3′-GL+2′-FL, and GOS/FOS. The control leg was supplemented with sterile water.
(§2) In addition the test legs were supplemented with Clostridium difficile C153 (difficile agar), Salmonella enteriditis S29 (XLD agar), Cronobacter sakasakii E71 (chromogenic agar) or Klebsiella pneumonia K2 (Simons citrate inositol agar). For every NDO and for the control also a pathogen free culture was prepared.
(§3) A 32 well plate that can handle low pH was used. The wells of this plate were filled with fecal solution. 2.5% (w/v) of the different sterile carbohydrate solutions (3′-GL, 2′-FL, 2′-FL/3′-GL (2.0+0.5%). and Glucose were added to the fecal slurry according to a template. […]

human PBMC, unstimulated = test: Cytokine production of unstimulated PBMC (IL10, CCL20); type: cell-based; conditions: for CCL20 level as compared to blanc control, in words: unstimulated PBMC; for Relative CCL 20 mean (s.e.): 0.1 w/v % 3′-GL
Excerpt: Isolation of PBMC from healthy donors: Human peripheral blood mononuclear cells (PBMC) from healthy donors were isolated from buffy coats (Sanquin, Amsterdam, the Netherlands). PBMC were obtained by centrifugation using Leucosep tubes (Greiner Bio-One). […] After lysis, the PBMC were resuspended in freezing medium (70% RPMI 1640 medium (Gibco, Thermo Fisher Technologies) supplemented with 10% heat-inactivated FCS and 100 U/ml penicillin-streptomycin, 20% heat-inactivated FCS and 10% DMSO (Sigma)) and cryopreserved. PBMC activation model: PBMC (0.2·10^6 cell/well) were cultured in 96-well flat bottom plates (Corning). For 24 hours the cells were pre-incubated with 2'-FL (Jennewein), 3'-GL (0-0.3% w/v; […] Sigma Aldrich) and combinations thereof. Subsequently, the cells were CD3/CD28-activated (Pelicluster CD3 and Pelicluster CD28, Sanquin) for an additional 24 hours. After incubation, IFNγ was measured by ELISA in the supernatants (see below). […] Roche) and/or 10% Triton (5 μl; negative control). […] Cytokine production of PBMC: PBMC were incubated with indicated reagents. After incubation, the supernatants were collected and IL2, IL6, IL10, IL13, IL21, TNFα, IFNγ, MIF, CCL1, CCL13, CCL17, CCL20, CCL22 and CXCL8-11 levels were measured by conducting a validated multiplex immunoassay based on Luminex technology (xMAP, Luminex Austin Tex. USA). Acquisition was conducted with the Biorad […] (Biorad laboratories, Hercules USA) in combination with xPONENT software version 4.2 (Luminex). Data was analyzed by 5-parametric curve fitting using Bio-Plex Manager software, version 6.1.1 (Biorad). After PBMC stimulation, cell culture supernatants were collected, after which cytokine responses were measured in order to test immune responsiveness of the cells. The levels of cytokines measured in stimulated conditions were corrected for the (low) levels of the cytokines measured in non-stimulated conditions. In addition, since each donor is reacting in its own efficiency onto the T cell stimulus, we calculated the individual index of cytokine response by dividing the intervention induced response by the basal stimulated response.

Klebsiella pneumonia K2 = test: Fecal slurry fermentation spiked with pathogens: Klebsiella; type: cell-based; conditions: inoculum of baby 2, spiked
Procedure: as §1, §2, §3

[2] = Caco-2 monolayer, DON 4.2 μM, 2′-FL 1 mg/ml
[3] = unstimulated, 0.2% w/v 2′-FL, 0.2 mM butyrate, blanc = 1, observed

Row | Compound | effect on DON-induced loss of epithelial barrier integrity (TEER, LY flux), in words (Caco-2 cell monolayer) | Lucifer yellow flux (Caco-2 cell monolayer; [2]) | TEER (% of initial value) Mean (s.e.) (Caco-2 cell monolayer; [2]) | Salmonella growth ([1]; inoculum of baby 1, spiked) | Salmonella growth ([1]; inoculum of baby 2, spiked) | IL10 level as compared to blanc control, in words (human PBMC, unstimulated; 0.2% 2′-FL, 0.2 mM butyrate) | CCL20 level as compared to blanc control, in words (human PBMC, unstimulated) | Relative IL10 level, mean (se) (human PBMC, unstimulated; [3]) | Relative CCL 20 mean (s.e.) (human PBMC, unstimulated; [3]) | Klebsiella growth (Klebsiella pneumonia K2)
1 | C[C@@H]1O[C@@H](O[C@H]2[C@H](O[C@H]3[C@H](O)[C@@H](O)C(O)O[C@@H]3CO)O[C@H](CO)[C@H](O)[C@@H]2O)[C@@H](O)[C@H](O)[C@@H]1O (stereo partly drawn) [2′-FL, α-L-Fuc-(1→2)-β-D-Gal-(1→4)-D-Glc] | statistically significantly prevent the DON induced reduction in TEER and increase in LYF | 446.4 (8.302)^∧ ng/ml (cm^2xh) | 42.79 (0.844)^∧∧ % of initial value | most restricted | most restricted | significantly (p<0.05) increased level | increased level | 3.361 (1.867) | 2.586 (0.281) | –
2 | Gal (beta 1-3)-Gal (beta 1-4)-Glc [3′-GL] | prevented the DON-induced loss of epithelial barrier integrity | – | – | – | – | – | did not have a statistically significant effect | – | 1.164 (0.212) | most inhibited
